Where two headings read alike, the source gives them in different places.
What was measured:
in vivo = conditions: mouse, in vivo, po
Description: (E)--Investigation of Acute Oral Toxicity in Mice
Charles River (CD-1 COBS) albino mice, 20-22 g in weight, were kept for some days in an air-conditioned animal house and fed with a standard diet (sterile VAR granules). They were fasted overnight before experiment, with water ad libitum. 15 Male mice and 15 female mice were used for each experiment.
N-Acetyl-para-aminophenol (NAPA) and N-acetyl-para-aminophenyl N'-acetyl-D,L-methionate (Compound A) were then administered to the mice, orally, as a suspension (shaken continuously with an electromagnetic agitator) in 5% gum arabic at a volume of 0.02 ml/g, either individually or in variously proportioned mixtures and at different dose levels, as shown in Table VII below.
A control group received only the 5% gum arabic vehicle.

[1] = mouse, in vivo, po
Description: (A)--Investigation of Serum Concentrations in Mice
36 Charles River COBS mice (18 males and 18 females) weighing 30 g each were deprived of food for 16 hours before the trial but were given their usual drinking water. Three groups, each containing 6 males and 6 females, received a dosage of 1 ml/100 g body weight per mouse, orally by stomach tube, of a suspension in 1% gum tragacanth of respectively:
Group X: 500 mg/kg of N-acetyl-para-aminophenol
A blood sample was taken by throat-slitting from one male and one female from each Group at each study time, i.e. 1/2, 1, 2, 4 and 24 hours after the oral administration.
At times 1/2, 1, 2 and 4 hours, each serum sample was divided into three 0.1 ml trial samples for the following three determinations:

[2] = tested on: albino rats (Charles River CD-1 COBS); assay: Acute oral toxicity in rats; type: in vivo
Description: (§1) (F)--Investigation of Acute Oral Toxicity in Rats
(§2) The investigation was carried out upon groups of 10 male and 10 female albino rats (Charles River CD-1 COBS) of 80-100 g body weight. […] Before the experiment they were fasted overnight, with water ad libitum. NAPA and Compound A were then administered orally by oesophageal intubation as suspensions (continuously shaken with an electromagnetic agitator) in 1% gum arabic at a volume of 2 ml/100 g body weight, and at dose levels of 1, 2, 4 and 8 g/kg. A control group received orally, under the same experimental conditions, merely 2 ml/100 g of the suspension vehicle. The rats were then kept under observation during seven days, while their behaviour patterns were observed and the mortality recorded

[3] = Acute oral toxicity in rats; type: in vivo; conditions: rat, in vivo; for mortality at 144 h / mortality at 48 h / mortality at 72 h / mortality at 96 h / mortality at 120 h / mortality at 168 h / mortality at 24 h: po; for mortality at 144 h: 6 Days
Description: as §1, §2

[4] = tested on: yeast-inflamed hind-paw pain-threshold; assay: Analgesic activity, Randall-Selitto test in rats; type: in vivo, female Charles River rats
Description: (C)--Investigation of Analgesic Activity in Rats
A control group received only the gum tragacanth vehicle.
In order to evaluate the effect of the treatment upon pain-thresholds, pressure was applied both to the injected hind-paw and to the other non-injected hind-paw. The pain-threshold was noted as the pressure at which the rat flinched, measured using an Ugo Basile "Analgesimeter" for both hind-paws of each rat at intervals of 1 hour, 3 hours, 5 hours and 22 hours after the administration, and expressed as the percentage of the pain-threshold pressure for the injected (and thus inflamed) hind-paw as against the non-injected (and thus healthy) hind-paw.

[5] = 1000 mg/kg, 1 g/kg oral, 10 F, read-out: Percentage Mortality
[6] = 1000 mg/kg, 1 g/kg oral, 10 M, read-out: Percentage Mortality
[7] = 1000 mg/kg, 1 g/kg oral, M & F, read-out: Percentage Mortality
[8] = 2000 mg/kg, 2 g/kg oral, 10 F, read-out: Percentage Mortality
[9] = 2000 mg/kg, 2 g/kg oral, 10 M, read-out: Percentage Mortality
[10] = 2000 mg/kg, 2 g/kg oral, M & F, read-out: Percentage Mortality
[11] = 4000 mg/kg, 4 g/kg oral, 10 F, read-out: Percentage Mortality
[12] = 4000 mg/kg, 4 g/kg oral, 10 M, read-out: Percentage Mortality
[13] = 4000 mg/kg, 4 g/kg oral, M & F, read-out: Percentage Mortality
[14] = 4000 mg/kg, Percentage Mortality
[15] = 8000 mg/kg, 8 g/kg oral, 10 F, read-out: Percentage Mortality
[16] = 8000 mg/kg, 8 g/kg oral, 10 M, read-out: Percentage Mortality
[17] = 8000 mg/kg, 8 g/kg oral, M & F, read-out: Percentage Mortality
[18] = 8000 mg/kg, Percentage Mortality

Compound: CC(=O)Nc1ccc(O)cc1 [NAPA, N-acetyl-para-aminophenol]
- LD50 at 24 h (in vivo): 730 ± 65 mg/kg
- LD50 at 168 h (in vivo): 690 ± 65 mg/kg
- serum "total" or "enzymatic" NAPA profile [1]: slowly decreases but remains high up to 4 hours after oral administration
- time of first deaths ([2]; 8 g/kg oral, rats): eight hours after the administration at 8 g/kg dose level
- mortality (in words) ([2]; oral, rats, 1-8 g/kg): Heavy mortality
- Percentage Mortality ([2]; rat, in vivo, po, 8000 mg/kg, 24 h): 95 Percentage
- mortality at 144 h [3, 5]: 0%
- mortality at 48 h [3, 5]: 0%
- mortality at 72 h ([3]; 1000 mg/kg, 1 g/kg oral, 10 M, 3 Days, read-out: Percentage Mortality): 10%
- mortality at 96 h ([3]; 1000 mg/kg, 1 g/kg oral, 10 M, 4 Days, read-out: Percentage Mortality): 10%
- mortality at 120 h ([3]; 1000 mg/kg, 1 g/kg oral, 10 M, 5 Days, read-out: Percentage Mortality): 10%
- mortality at 144 h [3, 6]: 10%
- mortality at 168 h ([3]; 1000 mg/kg, 1 g/kg oral, 10 M, 7 Days, read-out: Percentage Mortality): 10%
- mortality at 24 h ([3]; 1000 mg/kg, 1 g/kg oral, 10 M, 24 Hours, read-out: Percentage Mortality): 10%
- mortality at 48 h [3, 6]: 10%
- mortality at 120 h ([3]; 1000 mg/kg, 1 g/kg oral, M & F, 5 Days, read-out: Percentage Mortality): 5%
- mortality at 144 h [3, 7]: 5%
- mortality at 48 h [3, 7]: 5%
- mortality at 120 h ([3]; 1000 mg/kg, Percentage Mortality): 0%
- mortality at 144 h [3, 8]: 0%
- mortality at 48 h [3, 8]: 0%
- mortality at 72 h ([3]; 2000 mg/kg, 2 g/kg oral, 10 M, 3 Days, read-out: Percentage Mortality): 10%
- mortality at 96 h ([3]; 2000 mg/kg, 2 g/kg oral, 10 M, 4 Days, read-out: Percentage Mortality): 10%
- mortality at 120 h ([3]; 2000 mg/kg, 2 g/kg oral, 10 M, 5 Days, read-out: Percentage Mortality): 10%
- mortality at 144 h [3, 9]: 10%
- mortality at 168 h ([3]; 2000 mg/kg, 2 g/kg oral, 10 M, 7 Days, read-out: Percentage Mortality): 10%
- mortality at 24 h ([3]; 2000 mg/kg, 2 g/kg oral, 10 M, 24 Hours, read-out: Percentage Mortality): 10%
- mortality at 48 h [3, 9]: 10%
- mortality at 120 h ([3]; 2000 mg/kg, 2 g/kg oral, M & F, 5 Days, read-out: Percentage Mortality): 5%
- mortality at 144 h [3, 10]: 5%
- mortality at 48 h [3, 10]: 5%
- mortality at 120 h ([3]; 2000 mg/kg, Percentage Mortality): 0%
- mortality at 144 h [3, 11]: 70%
- mortality at 168 h ([3]; 4000 mg/kg, 4 g/kg oral, 10 F, 7 Days, read-out: Percentage Mortality): 70%
- mortality at 48 h [3, 11]: 70%
- mortality at 72 h ([3]; 4000 mg/kg, 4 g/kg oral, 10 M, 3 Days, read-out: Percentage Mortality): 90%
- mortality at 96 h ([3]; 4000 mg/kg, 4 g/kg oral, 10 M, 4 Days, read-out: Percentage Mortality): 90%
- mortality at 120 h ([3]; 4000 mg/kg, 4 g/kg oral, 10 M, 5 Days, read-out: Percentage Mortality): 90%
- mortality at 144 h [3, 12]: 90%
- mortality at 168 h ([3]; 4000 mg/kg, 4 g/kg oral, 10 M, 7 Days, read-out: Percentage Mortality): 90%
- mortality at 24 h ([3]; 4000 mg/kg, 4 g/kg oral, 10 M, 24 Hours, read-out: Percentage Mortality): 90%
- mortality at 48 h [3, 12]: 90%
- mortality at 144 h [3, 13]: 80%
- mortality at 48 h [3, 13]: 80%
- mortality at 24 h [3, 14]: 70%
- mortality at 72 h [3, 14]: 70%
- mortality at 96 h [3, 14]: 70%
- mortality at 120 h [3, 14]: 70%
- mortality at 168 h [3, 14]: 80%
- mortality at 144 h [3, 15]: 100%
- mortality at 48 h [3, 15]: 100%
- mortality at 72 h ([3]; 8000 mg/kg, 8 g/kg oral, 10 M, 3 Days, read-out: Percentage Mortality): 100%
- mortality at 96 h ([3]; 8000 mg/kg, 8 g/kg oral, 10 M, 4 Days, read-out: Percentage Mortality): 100%
- mortality at 120 h ([3]; 8000 mg/kg, 8 g/kg oral, 10 M, 5 Days, read-out: Percentage Mortality): 100%
- mortality at 144 h [3, 16]: 100%
- mortality at 168 h ([3]; 8000 mg/kg, 8 g/kg oral, 10 M, 7 Days, read-out: Percentage Mortality): 100%
- mortality at 24 h ([3]; 8000 mg/kg, 8 g/kg oral, 10 M, 24 Hours, read-out: Percentage Mortality): 90%
- mortality at 48 h [3, 16]: 100%
- mortality at 144 h [3, 17]: 100%
- mortality at 48 h [3, 17]: 100%
- mortality at 24 h [3, 18]: 100%
- mortality at 72 h [3, 18]: 100%
- mortality at 96 h [3, 18]: 100%
- mortality at 120 h [3, 18]: 100%
- mortality at 168 h [3, 18]: 100%
- LD50 at 24 h ([3]; oral, rats, Miller and Tainter method): 3100 ± 500 mg/kg
- LD50 at 168 h ([3]; oral, rats, Miller and Tainter method, read-out: LD50 (7 days)): 2850 ± 400 mg/kg
- Percentage Pain-Threshold (injected vs non-injected paw) ([4]; 1 millimole/kg oral (NAPA 151, A 324 mg/kg), 1 hr. (3.5 hrs. from yeast)): 45 ± 3.5 Percentage
- Percentage Pain-Threshold (injected vs non-injected paw) ([4]; 1 millimole/kg oral (NAPA 151, A 324 mg/kg), 3 hrs. (5.5 hrs. from yeast)): 48 ± 4.1 Percentage
- Percentage Pain-Threshold (injected vs non-injected paw) ([4]; 1 millimole/kg oral (NAPA 151, A 324 mg/kg), 5 hrs. (7.5 hrs. from yeast)): 47 ± 1.7 Percentage
- Percentage Pain-Threshold (injected vs non-injected paw) ([4]; 1 millimole/kg oral (NAPA 151, A 324 mg/kg), 22 hrs. (24.5 hrs. from yeast)): 43 ± 3.4 Percentage
- Percentage Pain-Threshold (injected vs non-injected paw) ([4]; 2 millimoles/kg oral (NAPA 302, A 648 mg/kg), 1 hr. (3.5 hrs. from yeast)): 50 ± 4.2 Percentage
- Percentage Pain-Threshold (injected vs non-injected paw) ([4]; 2 millimoles/kg oral (NAPA 302, A 648 mg/kg), 3 hrs. (5.5 hrs. from yeast)): 54 ± 4.0 Percentage
- Percentage Pain-Threshold (injected vs non-injected paw) ([4]; 2 millimoles/kg oral (NAPA 302, A 648 mg/kg), 5 hrs. (7.5 hrs. from yeast)): 53 ±3.9 Percentage
- Percentage Pain-Threshold (injected vs non-injected paw) ([4]; 2 millimoles/kg oral (NAPA 302, A 648 mg/kg), 22 hrs. (24.5 hrs. from yeast)): 54 ± 4.7 Percentage
- P of pain-threshold (t-test versus control) ([4]; 2 millimoles/kg oral, 3 hrs.): < 0.05

— patent US4361703A, “Para-amino(or nitro)phenyl N-acetylaminothioalkanoates” (priority 1977, dated 1982)
